In patent US20210338679A1, “NOVEL USES” (INTRA-CELLULAR THERAPIES, INC., priority 2018, published 2021):

Key:
[1] = test system: leukocytes, neutrophils, and macrophages (M1/M2 macrophages); assay: Mouse zymosan pleurisy model, flow cytometry of infiltrating cells; type: in vivo, mice; settings: for inflammatory resolution (shift from M1 to M2): zymosan sterile inflammation, FIGS. 1-9
Experimental: (§1) Zymosan is injected into the pleural cavities of mice in order to induce sterile inflammation. Infiltration of leukocytes, neutrophils, and macrophages are monitored at days 3 and 7 following injection. Detection of various cell types are identified according to the gating strategy outlined in Table 1 below.
In this model, injection of zymosan causes the recruitment of various waves of leukocytes, which are observed and recorded. Exudate volume increases to a maximum over a period of 24 hours, and neutrophils increase within 4 hours and reach a maximum by 48 hours. Lymphocytes of the adaptive immune system enter at a later stage, after three days, which is signaled by macrophages presenting antigens. A resolution phase is well documented in this model and is accompanied by decreased total macrophage number and transition into M2 phenotype.
In the studies, Compounds 1 and 2 were administered to the test subjects, and the effect the compounds had on infiltration of leukocytes, neutrophils, and macrophages was observed.
Similar tests were conducted with Compound 2, the results of which are illustrated in FIGS. 8 and 9. […] An additional test was carried out according to the same method. Mice were injected intraperitoneally with 1 mg Zymosan followed by 10 mg/kg Compound 1. Macrophage levels were recorded at injection, then at 4, 8, 16, 24, 48 and 72 hours post-injection.

[2] = test system: cytokine markers (IFNγ, IL-1β, MCP1-β, TNF-α, IL10, MCP-1/CCL2); assay: Inflammatory cytokine biomarkers in mouse zymosan pleurisy model; type: in vivo, mice
Experimental: as §1
(§2) Zymosan was injected into the pleural cavities of mice in order to induce sterile inflammation by the methods discussed in Example 1. Compound 1 was administered to test subjects to observe the effects on a variety of inflammatory biomarkers. […] IFNγ, IL-1β, MCP1-β and TNF-α decreased following administration of Compound 1 in all serum and plasma samples.

[3] = test system: leukocytes, neutrophils, and macrophages (M1/M2 macrophages); assay: Mouse zymosan pleurisy model, flow cytometry of infiltrating cells; type: in vivo, mice; settings: 1 mg Zymosan i.p. followed by 10 mg/kg; day 7; FIG. 11A
[4] = test system: metabolites of AA and DHA; assay: Detection of arachidonic acid and docosahexaenoic acid metabolites in mouse zymosan pleurisy model; type: in vivo, mice
Experimental: as §2, with “biomarkers. Results were recorded after 4 hours.” for “biomarkers.”
Lipids are known to be involved in regulation of a multitude of cellular responses including cell growth and death, and inflammation/infection, via receptor-mediated pathways. Various lipids are involved in both the initiation and resolution of inflammation. Pro-resolving lipid mediators are produced naturally in the body from unsaturated fatty acids, such as arachidonic acid (AA) and docosahexaenoic acid (DHA). Further studies were carried out to identify metabolites of AA and DHA, which are summarized below in Tables 2 and 3.

BV2 cells = assay: Microglia chemotaxis assay; type: cell-based; settings: 100 μM ADP, 4 hours; FIG. 10
Experimental: BV2 cells were added to upper chamber of a 5 μm pore Transwell 96-well plate over a reservoir containing 100 μM ADP and incubated at 37° C. with 5% CO2 for 4 hours. After the incubation cells were harvested with pre-warmed cell detachment solution for 30 minutes in the same incubation conditions. 75 μl of this cell detachment solution was combined with 75 μl of culture medium in a new 96 well plate compatible with a fluorescence reader. Cell number in bottom chamber was determined by adding CyQuant® GR dye and reading in the Envision fluorescence reader at 480 nm EX/520 nm EM.

[5] = after 4 hours, serum and plasma samples
[6] = arachidonic acid metabolite, compared with controls
[7] = docosahexaenoic acid metabolite

## CN1C(=O)c2c(nn(Cc3ccc(-c4ccccn4)cc3)c2Nc2ccccc2)N2C1=N[C@@H]1CCC[C@@H]12 [Compound 2]
[1]; 3 mg/kg, day 7, FIG. 8
  CD38+ macrophages: significant drop
[1]; 3 mg/kg, day 7, FIG. 9
  Erg2+ macrophages: sharp and significant increase
[1]
  inflammatory resolution (shift from M1 to M2): enhanced inflammatory resolution

## C[C@@H]1C[C@H]2[C@@H]3CCC4=CC(=O)C=C[C@]4(C)[C@@]3(F)[C@@H](O)C[C@]2(C)[C@@]1(O)C(=O)CO [Dexamethasone, reference compound]
[1]; 2 mg/kg, day 3 or 7, FIG. 8
  number of CD38+ macrophage populations: no significant effect
[1]; 2 mg/kg, day 3 or 7, FIG. 9
  number of Erg2+ macrophage populations: no significant effect

## CN1C(=O)c2c(nn(Cc3ccc(-c4cccc(F)n4)cc3)c2Nc2ccccc2)N2C1=N[C@@H]1CCC[C@@H]12 [Compound 1]
[2]; after 4 hours, serum
  IL10: decrease
[2]; [5]
  IFNγ: decreased
  IL-1β: decreased
  MCP1-β: decreased
  TNF-α: decreased
[2]; plasma, at 3 and 7 days, in comparison with control groups, FIG. 7
  inflammatory biomarkers (MCP-1/CCL2): less inflammatory biomarkers
[3]
  CD80+ macrophages (M1), difference to control: significant different
[4]; [6]
  5-HETE (intermediate mediator linked to resolution): No change
  12-HETE (intermediate mediator linked to resolution): Increase
  15-HETE (intermediate mediator linked to resolution): Increase
  LTB4 (pro-inflammatory mediator): No change
  PGE2 (pro-inflammatory mediator): Decrease
  TXB2 (pro-inflammatory mediator): Decrease
[4]; [7]
  14-HDOHE (resolution mediator): Increase
  17-HDOHE (intermediate mediator linked to resolution): Increase
  RVD5 (intermediate mediator linked to resolution): Increase
BV2 cells
  motility of the BV2 cells across the membrane: marked dampening effect
[1]; 1 mg Zymosan i.p. followed by 10 mg/kg, 4 hours, FIG. 12A
  Arg1+ M2 macrophages: increased
[1]; 1 mg Zymosan i.p. followed by 10 mg/kg, all observed times, FIGS. 11A, 11B
  M1 macrophage levels: lower M1 macrophage levels
[1]; 1 mg Zymosan i.p. followed by 10 mg/kg, relative to control at 2 and 3 days
  CD206+ M2 macrophages: significantly increased
[1]; day 3, among all animal groups, FIG. 6A
  MFI for CD38+ on macrophages: lowest value
[1]; day 3, FIG. 5A
  total numbers of CD38+ macrophages: decreased
[1]; day 7, compared with disease only and vehicle animals, FIG. 3A
  number of neutrophils: less dramatic decrease
[1]
  inflammatory resolution (shift from M1 to M2): enhanced inflammatory resolution
